Read-outs that look alike come from different tables or passages of the source.
Legend:
Assay in all cases: Kinase selectivity, P33-radiolabeled assay
Assay type in all cases: biochemical
Details in all cases: 10 μM ATP
FLT1/VEGFR1 = molecular target: T1, FLT1/VEGFR1 (Homo sapiens, UniProt P17948)
T1 construct: purchased Reaction Biology Corp
Outline: (§1)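 Percent residual kinase activity versus DMSO is reported. Conditions: compound at 10 μM, ATP at 10 μM, n = 2.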

MST1/STK4 = molecular target: T2, MST1/STK4 (Homo sapiens, UniProt Q13043)
T2 construct: purchased Reaction Biology Corp
T2 sequence (Q13043 1-487): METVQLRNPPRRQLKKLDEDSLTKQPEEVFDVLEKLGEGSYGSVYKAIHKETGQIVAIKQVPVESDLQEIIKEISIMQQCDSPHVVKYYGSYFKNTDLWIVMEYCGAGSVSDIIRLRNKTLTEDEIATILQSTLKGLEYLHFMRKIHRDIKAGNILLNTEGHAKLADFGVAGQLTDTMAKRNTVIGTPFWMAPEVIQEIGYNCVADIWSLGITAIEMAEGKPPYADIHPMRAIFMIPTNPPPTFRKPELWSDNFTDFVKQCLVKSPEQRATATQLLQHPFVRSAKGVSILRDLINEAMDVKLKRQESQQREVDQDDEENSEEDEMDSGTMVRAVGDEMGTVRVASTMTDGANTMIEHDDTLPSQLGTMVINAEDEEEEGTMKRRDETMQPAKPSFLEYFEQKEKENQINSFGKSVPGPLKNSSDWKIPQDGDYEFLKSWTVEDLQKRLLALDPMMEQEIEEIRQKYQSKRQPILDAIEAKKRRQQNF
Outline: as §1

GCK/MAP4K2 = molecular target: T3, GCK/MAP4K2 (Homo sapiens, UniProt Q12851)
T3 construct: purchased Reaction Biology Corp
T3 sequence (Q12851 1-820): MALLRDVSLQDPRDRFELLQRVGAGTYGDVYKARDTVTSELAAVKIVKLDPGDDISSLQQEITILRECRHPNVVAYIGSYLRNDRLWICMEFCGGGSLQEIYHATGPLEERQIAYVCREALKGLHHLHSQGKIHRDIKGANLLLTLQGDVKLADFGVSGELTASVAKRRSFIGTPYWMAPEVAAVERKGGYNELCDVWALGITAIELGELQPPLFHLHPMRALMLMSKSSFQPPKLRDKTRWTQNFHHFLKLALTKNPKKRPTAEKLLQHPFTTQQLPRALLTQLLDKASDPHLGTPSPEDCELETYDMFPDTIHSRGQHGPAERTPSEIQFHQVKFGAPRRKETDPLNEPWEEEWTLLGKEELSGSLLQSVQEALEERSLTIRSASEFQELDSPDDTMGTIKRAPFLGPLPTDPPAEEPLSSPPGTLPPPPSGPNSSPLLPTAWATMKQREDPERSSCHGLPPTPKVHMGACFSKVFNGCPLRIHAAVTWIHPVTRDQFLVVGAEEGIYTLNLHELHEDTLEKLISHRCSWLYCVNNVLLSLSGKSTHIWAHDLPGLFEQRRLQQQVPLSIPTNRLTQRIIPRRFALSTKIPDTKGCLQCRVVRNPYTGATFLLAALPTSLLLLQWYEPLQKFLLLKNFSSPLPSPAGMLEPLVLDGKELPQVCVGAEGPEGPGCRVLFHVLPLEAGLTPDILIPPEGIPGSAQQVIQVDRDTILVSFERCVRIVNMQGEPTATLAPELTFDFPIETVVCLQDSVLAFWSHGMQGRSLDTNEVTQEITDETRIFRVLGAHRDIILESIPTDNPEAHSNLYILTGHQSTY
Outline: as §1

EPHA3 = molecular target: T4, EPHA3 (Homo sapiens, UniProt P29320)
T4 construct: purchased Reaction Biology Corp
T4 sequence (P29320 21-983): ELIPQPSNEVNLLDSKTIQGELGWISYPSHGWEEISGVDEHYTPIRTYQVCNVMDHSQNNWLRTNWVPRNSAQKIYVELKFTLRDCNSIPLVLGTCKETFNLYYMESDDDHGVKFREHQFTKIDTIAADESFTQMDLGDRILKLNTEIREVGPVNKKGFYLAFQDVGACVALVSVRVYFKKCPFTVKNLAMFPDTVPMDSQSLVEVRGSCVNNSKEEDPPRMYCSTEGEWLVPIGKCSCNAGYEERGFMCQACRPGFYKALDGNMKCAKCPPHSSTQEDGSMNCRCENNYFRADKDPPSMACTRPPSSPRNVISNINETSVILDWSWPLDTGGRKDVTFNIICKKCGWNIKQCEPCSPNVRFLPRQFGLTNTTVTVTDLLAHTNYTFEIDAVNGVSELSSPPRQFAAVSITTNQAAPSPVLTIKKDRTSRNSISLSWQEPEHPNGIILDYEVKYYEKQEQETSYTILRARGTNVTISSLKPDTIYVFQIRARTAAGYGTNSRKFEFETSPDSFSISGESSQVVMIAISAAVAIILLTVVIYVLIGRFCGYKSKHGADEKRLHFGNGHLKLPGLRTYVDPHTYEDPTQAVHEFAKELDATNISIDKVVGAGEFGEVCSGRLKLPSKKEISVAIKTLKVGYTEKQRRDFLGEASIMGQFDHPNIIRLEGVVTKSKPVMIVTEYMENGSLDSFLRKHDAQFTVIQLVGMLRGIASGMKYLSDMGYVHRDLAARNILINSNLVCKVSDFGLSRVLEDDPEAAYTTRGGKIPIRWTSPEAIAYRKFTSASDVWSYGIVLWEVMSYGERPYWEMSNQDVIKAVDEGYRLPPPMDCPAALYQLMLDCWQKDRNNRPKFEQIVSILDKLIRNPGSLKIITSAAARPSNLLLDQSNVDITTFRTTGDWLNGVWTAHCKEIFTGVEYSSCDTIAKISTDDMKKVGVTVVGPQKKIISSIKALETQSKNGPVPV
Outline: as §1

[1] = read-out: % Enzyme Activity (relative to DMSO controls) AVG
[2] = read-out: % Enzyme Activity (relative to DMSO controls) Data 1
[3] = read-out: % Enzyme Activity (relative to DMSO controls) Data 2

T1 sequence (P17948 27-1338): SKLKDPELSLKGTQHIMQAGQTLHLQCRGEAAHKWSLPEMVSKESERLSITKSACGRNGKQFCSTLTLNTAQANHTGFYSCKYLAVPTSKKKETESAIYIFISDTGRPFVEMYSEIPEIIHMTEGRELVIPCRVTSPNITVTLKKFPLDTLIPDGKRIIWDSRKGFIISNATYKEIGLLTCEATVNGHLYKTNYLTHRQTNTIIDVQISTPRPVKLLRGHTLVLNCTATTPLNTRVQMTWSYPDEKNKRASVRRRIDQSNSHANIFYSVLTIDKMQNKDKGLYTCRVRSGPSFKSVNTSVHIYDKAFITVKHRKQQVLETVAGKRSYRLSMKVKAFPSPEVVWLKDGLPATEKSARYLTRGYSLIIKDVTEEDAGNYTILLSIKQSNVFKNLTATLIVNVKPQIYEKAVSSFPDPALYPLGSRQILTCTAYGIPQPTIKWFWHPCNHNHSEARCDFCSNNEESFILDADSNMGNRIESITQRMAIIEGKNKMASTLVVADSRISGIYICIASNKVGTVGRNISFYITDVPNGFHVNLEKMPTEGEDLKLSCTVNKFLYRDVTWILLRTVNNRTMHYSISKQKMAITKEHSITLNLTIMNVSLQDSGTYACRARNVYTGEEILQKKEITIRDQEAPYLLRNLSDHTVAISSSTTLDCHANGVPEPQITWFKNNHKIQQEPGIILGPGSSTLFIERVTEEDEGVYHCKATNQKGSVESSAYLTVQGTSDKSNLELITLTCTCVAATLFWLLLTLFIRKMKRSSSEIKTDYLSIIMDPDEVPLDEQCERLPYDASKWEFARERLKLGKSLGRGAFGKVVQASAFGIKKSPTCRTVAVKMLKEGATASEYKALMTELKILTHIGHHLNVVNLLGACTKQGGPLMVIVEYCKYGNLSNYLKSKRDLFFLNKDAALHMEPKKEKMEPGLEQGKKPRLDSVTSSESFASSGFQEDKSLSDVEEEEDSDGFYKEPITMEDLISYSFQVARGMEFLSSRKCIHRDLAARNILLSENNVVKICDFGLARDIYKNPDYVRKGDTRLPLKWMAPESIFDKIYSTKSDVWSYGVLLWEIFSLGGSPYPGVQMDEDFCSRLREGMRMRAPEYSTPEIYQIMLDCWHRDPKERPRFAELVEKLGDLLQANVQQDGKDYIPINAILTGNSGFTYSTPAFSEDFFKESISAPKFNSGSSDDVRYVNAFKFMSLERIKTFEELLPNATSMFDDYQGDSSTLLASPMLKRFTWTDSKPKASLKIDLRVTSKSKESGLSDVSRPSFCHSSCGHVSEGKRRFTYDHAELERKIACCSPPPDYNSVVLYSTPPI

CC(C)(C)C(=O)N1N=CC[C@H]1c1ccccc1 [GSK′963] gave a remaining activity at 10 µM (FLT1/VEGFR1; [1]) of 107%, a remaining activity at 10 µM (FLT1/VEGFR1; [2]) of 106% and a remaining activity at 10 µM (FLT1/VEGFR1; [3]) of 107%. For the same compound, the remaining activity at 10 µM (MST1/STK4; [1]) was 100%, the remaining activity at 10 µM (MST1/STK4; [2]) was 101% and the remaining activity at 10 µM (MST1/STK4; [3]) was 100%. The remaining activity at 10 µM (GCK/MAP4K2; [1]) was 109%, the remaining activity at 10 µM (GCK/MAP4K2; [2]) was 108% and the remaining activity at 10 µM (GCK/MAP4K2; [3]) was 110%. For the same compound, the remaining activity at 10 µM (EPHA3; [1]) was 91.8%, the remaining activity at 10 µM (EPHA3; [2]) was 94.4% and the remaining activity at 10 µM (EPHA3; [3]) was 89.2%.

— paper PMC4979471 (Cell Death Discovery, 2015)
